Patent publication US20110105434A1, “2-AMINO PURINE DERIVATIVES AND THEIR USE AS ANTI-HERPETIC AGENTS” (priority 2007, published 2011)

Tests used:
Type in all cases: in vivo, human
[1] = test system: patient with reduced renal function; test: creatinine clearance (renal function) in a patient with autoimmune disease
Description: Patients with autoimmune disease often suffer significant inflammation of the kidneys, often causing renal dysfunction and/or destruction, which can lead to death in the absence of dialysis. A clinical laboratory measure of kidney function is creatinine clearance. Creatinine is the metabolic product formed from creatine when food is converted to energy. Creatinine is produced at a steady state and is affected very little by diet or normal physical activities. When a subject's kidneys are damaged and/or cannot function normally, the amount of creatinine excreted in the subject's urine decreases while its level in the blood increases. Thus, the blood level of creatinine indicates how well the kidneys are working. A high level generally means the kidneys are not functioning properly. A creatinine clearance test is performed both on a blood sample taken from the subject's vein and on a sample of urine collected over 24 hours. […] A normal creatinine level is less than 1, and normal CrCl levels are typically >100 mL/min. Dialysis is usually required when CrCl levels fall below about 20 mL/min.

[2] = test system: patient with rheumatoid arthritis; test: rheumatoid arthritis signs or symptoms; conditions: 300 mg/kg per day
Procedure: Another effect of anti-herpes drugs was elimination of the signs or symptoms of rheumatoid arthritis. A patient experienced 100% reduction in joint swelling, pain, inflammation and clicks at 300 mg/kg of famciclovir per day.

[3] = test system: patient with irritable bowel syndrome; test: irritable bowel syndrome signs or symptoms
Description: This example sets forth the treatment of a patient with signs or symptoms of disease associated with reduced blood flow to an organ or tissue (correlated with hypertonicity of the associated blood vessels) using high doses of famciclovir, a compound of Formula (II) where B is H and each of R1 and R2 is CH3C(O)—, at a level and under conditions as explained below.
A patient weighing about 100 kg having multiple signs or symptoms of autoimmune disease had been ingesting famciclovir for several years at about 10 g per day taken 4 times daily during a 24 hour period. While the subject's condition was tolerable, they were in a regular state of pain in the joints and had other signs or symptoms discussed below.
The patient also presented with irritable bowel syndrome (IBS) signs or symptoms, such as severe distention, cramps and pain spasms. After increasing intake of famciclovir to a maintenance level of 300 mg/kg per day, the patient experienced a dramatic improvement. […] The distended waist circumference was reduced from 44 inches to 38 inches over a period of days, and pain was about 90% relieved. Since the patient experienced no weight loss, the reduction in distention was due to the relief of bowel spasms.

[4] = test system: patient with muscle spasms, pain and inability to sleep; test: muscle spasms, pain, sleep and restless leg; conditions: 300 mg/kg per day
Procedure: Severe sleep disturbance can be caused by inability to relax the axial muscles due to hypertonus. It is not appreciated by those without hypertonus of the muscles, but it is necessary for the somatic muscles to relax to a predetermined level, before sleep will commence. Hypertonus can prevent that relaxation and prevent sleep. One patient was unable to achieve normal REM sleep for over 15 years, when their autoimmune disease was treated with the current treatments, which are essentially ineffective. However, this same patient was restored to essentially […] on the doses of this invention. Additionally this patient suffered from severe “restless leg syndrome” which is caused by the same disease conditions of the sympathetic chain as causes all above. […] At the levels of '114 these benefits were only slightly apparent, with the doses of this application normal REM sleep is restored. And, if the drug levels of the 2-aminopurines are allowed to drop for only a few hours the inability to sleep, and the severe restless leg return to the afflicted. […] The relationship of the appearance or suppression of the signs or symptoms of sleep disturbance to the onboard drug level is consistent and dramatic. […] The patient was administered 300 mg/kg of famciclovir per day and experienced relief of 90% of the spasms and pain. […]

patient lung function = test: lung function by blood oxygenation (pulse oximetry)
Description: Still another example of improvement that the inventor has discovered is improved pulmonary function. […] The pulmonary function was increased to 96% SATS by using the very high dose treatment of this invention. […] Thus the method of this invention can treat and reverse pulmonary hypertension and pulmonary fibrosis. […] Improvements of this kind in this range with this kind of patient (no known existing lung disease) are unusual. Thus, another aspect of this invention is a method to improve pulmonary function by administering a compound in accordance with the teachings herein. Treatments which cause similar improvements in patients with lung disease are direct acting relaxants upon the muscles of the vessels and the airways of the lung. The compounds of this invention have no such direct effect, and can only relax these critical lung muscles by suppressing the herpetically-induced “hypertonus” or resting tone of these muscles which was elevated above normal tone by the herpetic activity in the cells of the sympathetic chain which control these muscles.
An improvement in lung function was seen, possibly via relief of pulmonary hypertension, while taking famciclovir at 300 mg/kg per day. […] The patient's oxyhemoglobin increased from 92% to 96%. This small improvement is significant for this parameter in the 90%-100% range. […]

[5] = test system: herpes-infected patient with kyphosis; test: kyphosis; conditions: 300 mg/kg per day
Procedure: Another condition observed in a herpes-infected patient was kyphosis or abnormal curvature of the upper spine. Generally, kyphosis is thought to result from habitual poor posture. However, kyphosis is sometimes caused by abnormal contraction of some spinal muscles. When the patient received 300 mg/kg of famciclovir per day, their posture improved as the contracted spinal muscles relaxed.

[6] = test system: patient with urination problems; test: urination problems (benign prostate hypertrophy symptoms); conditions: 300 mg/kg per day, taken in 6 hour increments
Procedure: The same high doses of famciclovir also relieved urination problems in a patient, such as hesitancy, weak stream and retention. These signs or symptoms are usually associated with benign prostate hypertrophy. However, without taking any prostate-specific drugs, but famciclovir alone, the patient achieved substantial relief of these symptoms. The signs or symptoms disappeared or were at least 90% relieved at 300 mg/kg of famciclovir per day, taken in 6 hour increments. The symptoms returned in about 10 hours when the drug was taken every 10 hours instead of every six hours. When the drug was taken every 6 hours, the symptoms, once again, disappeared.

In the case of `CC(=O)OCC(CCn1cnc2cnc(N)nc21)COC(C)=O` [famciclovir, 2-amino-9-(4-acetoxy-3-acetoxymethylbut-1-yl)purine], the creatinine clearance level ([1]; dose increased from '114 level to levels of this application, from 89 mL/min, 100 kg man) is reported as 143 mL/min, the impaired kidney function ([1]; more than 250 mg/kg of body weight per day) is reported as “significant improvement” and the “reduction in joint swelling, pain, inflammation and clicks” value [2] is reported as 100%. The IBS pain relieved ([3]; 300 mg/kg per day) was “about 90%”, the distended waist circumference ([3]; 300 mg/kg per day, over a period of days, reduced from 44 inches) was 38 inches and the IBS pain spasms ([3]; maintenance level of 300 mg/kg per day) was “dramatically decreased”. For the same compound, the “relief of the spasms and pain” value [4] was 90%, the “severe bowel and back pain and spasms relieved” value [4] was “about 80%” and the “pulse O2 (oxyhemoglobin)” value (patient lung function; after six months of 300 mg/kg per day, from 92%) was 96%. The “pulse O2 (oxyhemoglobin)” value (patient lung function; several years taking about 100 mg/kg) was 92%, the posture in kyphosis [5] was “improved” and the “urination signs or symptoms (hesitancy, weak stream, retention) relieved” value [6] was “at least 90%”.
